From patent publication US5444042A, “Method of treatment of neurodegeneration with calpain inhibitors” (Cortex Pharmaceuticals, priority 1994, dated 1995)

Legend:
[1] = biological target: T1, Papain (Carica papaya, UniProt P00784); assay: Papain inhibition, Ki by Dixon plot (Table PKC1); format: biochemical; conditions: 0.05M Tris-HCl pH 7.5, 2 mM EDTA, 5 mM cysteine, 1% DMSO, 25° C., substrate Nα-Benzoyl-Arg-AMC; read-out: Ki P (Papain)
T1 sequence (P00784 134-345): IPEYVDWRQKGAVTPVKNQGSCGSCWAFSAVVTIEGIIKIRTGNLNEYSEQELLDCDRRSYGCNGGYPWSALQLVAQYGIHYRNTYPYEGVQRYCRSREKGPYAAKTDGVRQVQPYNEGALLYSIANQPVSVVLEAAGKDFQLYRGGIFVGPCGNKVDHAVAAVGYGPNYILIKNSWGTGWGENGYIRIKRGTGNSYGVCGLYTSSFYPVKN
Method: Various concentrations of inhibitors in dimethylsulfoxide (DMSO) were added to the assay mixture, which contained buffer and substrate. The reaction was started by the addition of the enzyme and the hydrolysis rates were followed spectrophotometrically or fluorimetrically. 88 mM KH2 PO4, 12 mM Na2 HPO4, 1.33 mM EDTA, 2.7 mM cysteine, pH 6.0 was used as a buffer for cathepsin B; and 20 mM Hepes, 10 mM CaCl2, 10 mM β-mercaptoethanol, pH 7.2 buffer was utilized for calpain I and calpain II.
All peptide thioester hydrolysis rates were measured with assay mixtures containing 4,4'-dithiodipyridine [e324=19800 M-1 cm-1; Grasetti & Murray, Arch. Biochem. Biophys. 119, pp 41-49 (1967)]. Papain was assayed with Bz-Arg-AMC or Bz-Arg-NA [Kanaoka et al., Chem. Pharm. Bull. 25, 3126-3128 (1977)], and the AMC (7-amino-4-methylcoumarin) release was followed fluorimetrically (excitation at 380 nm, and emission at 460 nm). Cathepsin B was assayed with Z-Arg-Arg-AFC [Barrett and Kirschke, Methods Enzymol. 80, 535-561 (1981)], and the AFC (7-amino-4-trifluoromethylcoumarin) release was followed fluorimetrically (excitation at 400 nm, and emission at 505 nm). Calpain I from human erythrocytes and calpain II from rabbit were assayed using Suc-Leu-Tyr-AMC [Sasaki et al., J. Biol. Chem. 259, 12489-12494 (1984), hereby incorporated by reference], and the AMC (7-amino-4-methylcoumarin) release was followed fluorimetrically (excitation at 380 nm, and emission at 460 nm). Enzymatic hydrolysis rates were measured at various substrate and inhibitor concentrations, and Ki values were determined by Dixon plot.
The inhibition constants for papain shown in Table PKC1 were measured in 0.05M Tris-HCl, pH 7.5 buffer, containing 2 mM EDTA, 5 mM cysteine (freshly prepared), 1% DMSO, at 25° C., using N^α -Benzoyl-Arg-AMC as a substrate, except that those values of inhibition constants for papain marked with an "e" in Table PKC1 were measured in 50 mM Tris-HCl, pH 7.5 buffer, containing 20 mM EDTA, 5 mM cysteine, 9% DMSO, at 25° C., using N^α -Benzoyl-Arg-NA as a substrate.

[2] = system: Calpain activity (spectrin BDP's); assay: Transient ischemia in gerbils, spectrin BDP's in CA1 (Example 3B); format: in vivo, gerbil; conditions: CA1 region, 30 minutes after clamping
Method: Implantation surgeries and clamping of the carotid arteries were performed as above with a control-ischemia group (n=4) and a leupeptin-ischemia group (n=5). A third group of animals (n=4) received implantation with pumping of saline, but was not subjected to ischemia. Animals were sacrificed by decapitation 30 minutes after clamping of the arteries. The brains were rapidly removed and placed in cold homogenization buffer (0.32M sucrose, 10 mM Tris-HCl, 2 mM EDTA, 1 mM EGTA, 100 μM leupeptin and 1 μg/ml of the Halo-Ketone Compound, tos-phe-CH2 Cl (TPCK)). The CA1 region of the hippocampus was then dissected. The samples from both control and leupeptin treated animals were then prepared for SDS-PAGE and immunoblotting with labeled anti-spectrin antibody, as described above in connection with in vitro uses of the Calpain Inhibitors. […] These BDP's co-migrated with BDP's observed after in vitro proteolysis of spectrin with Calpain.

[3] = system: gerbils subjected to transient ischemia; assay: Transient ischemia in gerbils, neuronal loss in CA1 (Example 3A); format: in vivo, gerbil; conditions: leupeptin 20 mg/ml intracerebroventricular perfusion 3 days before 10 min ischemia; 14 days later
Method: A small cannula was implanted in the right lateral ventricle of adult gerbils, and secured to the skull with dental cement. An Alzet micro-osmotic pump was attached to the cannula for intracerebroventricular perfusion. The pump was filled with either saline alone (control) or leupeptin (20 mg/ml in saline). After three days perfusion with either the control solution or with the leupeptin solution, transient ischemia was induced by bilaterally clamping the carotid arteries for a period of ten minutes. […] Fourteen days later, the animals were sacrificed by Nembutal overdose and transcardial perfusion of a 10% solution of paraformaldehyde in PBS. Coronal sections of the brain were stained with cresyl violet and were examined for the extent of neuronal loss.

SMILES	Ki [1] [nM]	spectrin BDP's relative to control ischemia treated gerbils [2]	loss of neurons in CA1 field [3] [%]
CCC(NC(=O)[C@@H]1CCCN1C(=O)[C@H](C)NC(=O)[C@H](C)NC(=O)CCC(=O)OC)C(=O)C(=O)OC (mixture of isomers) [MeO-Suc-Ala-Ala-Pro-Abu-COOMe, MeO-Suc-Ala-Ala-Pro-DL-Abu-CO2 Me]	700		
CCOC(=O)C(=O)C(CC)NC(=O)[C@H](C)NC(=O)[C@H](C)NC(=O)OCc1ccccc1 (mixture of isomers) [Z-Ala-Ala-DL-Abu-COOEt, Z-Ala-Ala-DL-Abu-CO2 Et]	900		
CC(=O)N[C@@H](CC(C)C)C(=O)N[C@@H](CC(C)C)C(=O)N[C@H](C=O)CCCNC(=N)N [Leupeptin, Ac-Leu-Leu-Arg-H, reference compound]		approximately 25%	15
